# Data as given in ChEMBL document CHEMBL5505996, “Discovery of novel osthole derivatives exerting anti-inflammatory effect on DSS-induced ulcerative colitis and LPS-induced acute lung injury in mice” (Eur J Med Chem, 2024).
# The source made the active and inactive calls. The rule behind the calls is not given here.
# Tests used:
# RAW264.7 [1] = experiment: Potency index, ratio of osthole IC50 to test compound IC50 for antiinflammatory activity against LPS-induced mouse RAW264.7 cells assessed as inhibition of TNF-alpha release pretreated for 30 mins followed by LPS stimulation and measured after 24 hrs by ELISA; type: functional; settings: time 24.5 hrs
# Mus musculus [2] = experiment: Antiinflammatory activity against C57BL/6 mouse model of DSS induced ulcerative colitis assessed as protection against goblet cell depletion at 20 mg/kg, po administered daily for 10 days by H and E staining based analysis; type: functional, organism-based; settings: time 10.0 day
# J774.A1 [3] = experiment: Inhibition of NFkappaB signaling pathway in LPS-induced mouse J774.A1 cells assessed as reduction in p65 phosphorylation pretreated for 2 hrs followed by LPS stimulation and measured after 30 mins by Western blot analysis; type: cell-based; settings: time 2.5 hrs
# [4] = AUC (0 to t) in male Sprague-Dawley rat at 10 mg/kg, po by UPLC-MS/MS analysis; type: ADME, organism-based; settings: in vivo
# Mus musculus [5] = experiment: Antiinflammatory activity against C57BL/6 mouse model of LPS induced acute lung injury assessed as reduction in IL-6 mRNA expression in lung at 20 mg/kg, po administered every 12 hrs for 3 times followed by LPS stimulation for 6 hrs starting from 30 mins post last dose by RT-qPCR analysis; type: functional, organism-based; settings: time 42.5 hrs
# [6] = Tmax in male Sprague-Dawley rat at 10 mg/kg, po by UPLC-MS/MS analysis; type: ADME, organism-based; settings: in vivo
# J774.A1 [7] = experiment: Cytotoxicity against mouse J774.A1 cells assessed as reduction in cell proliferation at 10 uM measured after 24 hrs by CCK-8 assay; type: toxicity, cell-based; settings: j774.a1, 24 h
# Mus musculus [8] = experiment: Antiinflammatory activity against C57BL/6 mouse model of DSS induced ulcerative colitis assessed as reduction in inflammatory cytokines infiltration in intestine at 20 mg/kg, po administered daily for 10 days by immunohistochemical staining based analysis; type: functional, organism-based; settings: time 10.0 day
# [9] = Acute toxicity in ICR mouse assessed as effect on physiological status at 500 mg/kg, po measured daily for 10 days; type: organism-based; settings: in vivo, 240 h, time 10 day
# RAW264.7 [10] = experiment: Potency index, ratio of osthole IC50 to test compound IC50 for antiinflammatory activity against LPS-induced mouse RAW264.7 cells assessed as inhibition of IL-6 release pretreated for 30 mins followed by LPS stimulation and measured after 24 hrs by ELISA; type: functional; settings: time 24.5 hrs
# [11] = Acute toxicity in ICR mouse assessed as pathological changes in lung at 500 mg/kg, po measured daily for 10 days by H and E staining based analysis; type: organism-based; settings: in vivo, 240 h, time 10 day
# J774.A1 [12] = experiment: Antiinflammatory activity against LPS-induced mouse J774.A1 cells assessed as inhibition of IL-6 release pretreated for 30 mins followed by LPS stimulation and measured after 24 hrs by ELISA; type: functional, cell-based
# Mus musculus [13] = experiment: Antiinflammatory activity against C57BL/6 mouse model of DSS induced ulcerative colitis assessed as protection against mucosal damage at 20 mg/kg, po administered daily for 10 days by H and E staining based analysis; type: functional, organism-based; settings: time 10.0 day
# [14] = Acute toxicity in ICR mouse assessed as reduction in body weight at 500 mg/kg, po measured daily for 10 days; type: organism-based; settings: in vivo, 240 h, time 10 day
# [15] = Acute toxicity in ICR mouse assessed as effect on daily activities at 500 mg/kg, po measured daily for 10 days; type: organism-based; settings: in vivo, 240 h, time 10 day
# Mus musculus [16] = experiment: Antiinflammatory activity against C57BL/6 mouse model of LPS induced acute lung injury assessed as reduction in IL-6 level in serum at 20 mg/kg, po administered every 12 hrs for 3 times followed by LPS stimulation for 6 hrs starting from 30 mins post last dose by ELISA; type: functional, organism-based; settings: time 42.5 hrs
# [17] = Aqueous solubility of compound in phosphate buffer at pH 7.4 measured after 24 hrs by HPLC analysis; type: physicochemical
# RAW264.7 [18] = experiment: Antiinflammatory activity against LPS-induced mouse RAW264.7 cells assessed as inhibition of TNF-alpha release pretreated for 30 mins followed by LPS stimulation and measured after 24 hrs by ELISA; type: functional, cell-based
# J774.A1 [19] = experiment: Antiinflammatory activity against LPS-induced mouse J774.A1 cells assessed as inhibition of TNF-alpha release pretreated for 30 mins followed by LPS stimulation and measured after 24 hrs by ELISA; type: functional, cell-based
# Mus musculus [20] = experiment: Antiinflammatory activity against C57BL/6 mouse model of LPS induced acute lung injury assessed as reduction in IL-6 level in lung at 20 mg/kg, po administered every 12 hrs for 3 times followed by LPS stimulation for 6 hrs starting from 30 mins post last dose by immunohistochemical staining based analysis; type: functional, organism-based; settings: time 42.5 hrs
# [21] = target: Mitogen-activated protein kinase kinase kinase 7 (Homo sapiens) (UniProt O43318); experiment: Inhibition of TAK1 (unknown origin) at 10 uM relative to control
# Mitogen-activated protein kinase kinase kinase 7 (Homo sapiens), sequence (O43318 whole entry, looked up): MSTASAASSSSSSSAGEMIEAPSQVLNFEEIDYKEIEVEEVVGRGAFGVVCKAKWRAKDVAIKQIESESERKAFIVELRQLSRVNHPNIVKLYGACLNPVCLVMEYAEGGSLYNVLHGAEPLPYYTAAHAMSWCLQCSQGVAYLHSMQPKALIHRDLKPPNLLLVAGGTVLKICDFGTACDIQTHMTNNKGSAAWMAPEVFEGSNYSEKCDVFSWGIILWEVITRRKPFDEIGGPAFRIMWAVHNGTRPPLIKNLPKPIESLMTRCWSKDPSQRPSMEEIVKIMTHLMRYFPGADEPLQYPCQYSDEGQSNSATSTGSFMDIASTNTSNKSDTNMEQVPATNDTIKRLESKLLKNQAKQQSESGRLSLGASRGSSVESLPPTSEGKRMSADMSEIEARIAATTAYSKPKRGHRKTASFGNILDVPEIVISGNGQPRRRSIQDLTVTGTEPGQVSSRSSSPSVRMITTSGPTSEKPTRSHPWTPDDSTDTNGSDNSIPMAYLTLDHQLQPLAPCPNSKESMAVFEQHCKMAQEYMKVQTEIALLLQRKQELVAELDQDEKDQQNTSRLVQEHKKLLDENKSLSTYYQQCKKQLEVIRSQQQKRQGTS
# RAW264.7 [22] = experiment: Antiinflammatory activity against LPS-induced mouse RAW264.7 cells assessed as inhibition of IL-6 release pretreated for 30 mins followed by LPS stimulation and measured after 24 hrs by ELISA; type: functional, cell-based
# Mus musculus [23] = experiment: Antiinflammatory activity against C57BL/6 mouse model of DSS induced ulcerative colitis assessed as reversal of shortened intestinal length due to fecal obstruction at 20 mg/kg, po administered daily for 10 days; type: functional, organism-based; settings: time 10.0 day
# J774.A1 [24] = experiment: Inhibition of MAPK signaling pathway in LPS-stimulated mouse J774.A1 cells assessed as reduction in p38 phosphorylation at 10 uM pretreated for 2 hrs followed by LPS stimulation and measured after 30 mins by Western blot analysis; type: cell-based; settings: time 2.5 hrs
# Mus musculus [25] = experiment: Antiinflammatory activity against C57BL/6 mouse model of LPS induced acute lung injury assessed as reduction in total number of cells in BALF at 20 mg/kg, po administered every 12 hrs for 3 times followed by LPS stimulation for 6 hrs starting from 30 mins post last dose; type: functional, organism-based; settings: time 42.5 hrs
# [26] = Acute toxicity in ICR mouse assessed as pathological changes in heart at 500 mg/kg, po measured daily for 10 days by H and E staining based analysis; type: organism-based; settings: in vivo, 240 h, time 10 day
# J774.A1 [27] = experiment: Inhibition of NFkappaB signaling pathway in LPS-induced mouse J774.A1 cells assessed as reduction in IkappaBalpha degradation pretreated for 2 hrs followed by LPS stimulation and measured after 30 mins by Western blot analysis; type: cell-based; settings: time 2.5 hrs
# J774.A1 [28] = experiment: Inhibition of MAPK signaling pathway in LPS-stimulated mouse J774.A1 cells assessed as reduction in JNK phosphorylation at 10 uM pretreated for 2 hrs followed by LPS stimulation and measured after 30 mins by Western blot analysis; type: cell-based; settings: time 2.5 hrs
# THP-1 = experiment: Antiinflammatory activity against LPS-induced PMA-differentiated human THP-1 cells assessed as inhibition of IL-6 release pretreated for 30 mins followed by LPS stimulation and measured after 24 hrs by ELISA; type: functional, cell-based
# Mus musculus [29] = experiment: Antiinflammatory activity against C57BL/6 mouse model of LPS induced acute lung injury assessed as reduction in pulmonary edema by measuring reduction in lung wet/dry ratio at 20 mg/kg, po administered every 12 hrs for 3 times followed by LPS stimulation for 6 hrs starting from 30 mins post last dose; type: functional, organism-based; settings: time 42.5 hrs
# Mus musculus [30] = experiment: Antiinflammatory activity against C57BL/6 mouse model of DSS induced ulcerative colitis assessed as reduction in IL-6 level in serum at 20 mg/kg, po administered daily for 10 days; type: functional, organism-based; settings: time 10.0 day
# [31] = Acute toxicity in ICR mouse assessed as pathological changes in kidney at 500 mg/kg, po measured daily for 10 days by H and E staining based analysis; type: organism-based; settings: in vivo, 240 h, time 10 day
smiles,measurement,setting,value
CC(C)=CCc1c(OCCCCNCCN2CCOCC2)ccc2ccc(=O)oc12,Ratio IC50,RAW264.7 [1],3.8
same,Activity,Mus musculus [2],Active
same,inhibition,J774.A1 [3],inactive
same,AUC(0-t),[4],1120 ng·h/mL
same,Activity,Mus musculus [5],Active
same,Tmax,[6],3.33 h
same,Activity,J774.A1 [7],Non-Toxic
same,Activity,Mus musculus [8],Active
same,Activity,[9],Non-Toxic
same,Ratio IC50,RAW264.7 [10],32
same,Activity,[11],Non-Toxic
same,IC50,J774.A1 [12],4.23 µM
same,Activity,J774.A1 [12]; time 24.5 hrs,Dose-Dependent Effect
same,Activity,Mus musculus [13],Active
same,Activity,[14],Non-Toxic
same,Activity,[15],Non-Toxic
same,Activity,Mus musculus [16],Active
same,solubility at 24 h,[17],340 µg/mL
same,IC50,RAW264.7 [18],29.7 µM
same,IC50,J774.A1 [19],18.1 µM
same,Activity,Mus musculus [20],Active
same,inhibition,[21],5.23%
same,IC50,RAW264.7 [22],4.57 µM
same,Activity,Mus musculus [23],Active
same,inhibition,J774.A1 [24],Active
same,Activity,Mus musculus [25],Active
same,Activity,[26],Non-Toxic
same,inhibition,J774.A1 [27],inactive
same,inhibition,J774.A1 [28],Active
same,IC50,THP-1,10.6 µM
same,Activity,Mus musculus [29],Active
same,Activity,Mus musculus [30],Active
same,Activity,[31],Non-Toxic
